Experimental findings from patent US8420605B2, “Hydrogel compositions” (The University of Strathclyde, priority 2005, dated 2013) are described below.

Common to all, as to format: cell-based
In experiment [1] the test system is Human mesenchymal stem cells (MSCs). Briefly: PCR gene expression of cells cultured in gels for 14 days. The following applies: after 14 days. As to the method: Human mesenchymal stem cells (MSCs) were isolated from bone marrow taken from patients (with both patient and ethical consent) undergoing hip replacement surgery.A HISTOPAQUE (SIGMA-ALDRICH) gradient was used to isolate mononuclear cells and these cells were cultured in monolayer with α-MEM (with 10% heat-inactivated foetal calf serum, 100 U/ml streptomycin/penicillin and 0.85 mM ascorbic acid) under standard culture conditions (humidified atmostphere, 37° C., 5% CO2). After 5 days non-adherent cells were removed by washing with media.
At 80% confluence in passage 3 the MSCs were trypsinised and a cell count was performed. A suitable number of cells were centrifuged at 400 g for 5 minutes and then resuspended in a 10 mM Fmoc-Phe-Phe solution to a final concentration of 4×10^6 cells/ml. The cell suspension was mixed to ensure even cell distribution and 200 μl layers were pipetted into high pore density (0.4 μm pore size) cell culture inserts in 24-well plates. Media (α-MEM as previously described) was added gently to both the well and the insert and gels were allowed to polymerise.
The cell-seeded gels were then cultured under standard conditions for 14 days with media changed every 2 days. Following culture 1 ml of TRIZOL was added to each insert and the gels disrupted by pipetting. A modified RNA extraction procedure was performed combining both the TRIZOL and PURELINK (INVITROGEN) extraction procedures. RNA was reverse transcribed to cDNA using SUPERSCRIPT II (INVITROGEN) and PCR performed using a standard HOTSTARTAQ (QIAGEN) procedure for the house-keeping gene GAPDH as well as the transcription factor SOX-9, aggrecan and collagen types I and II.
PCR products were run on a 1.5% agarose gel containing ethidium bromide and visualised on a UV-transilluminator.

Experiment [2] relates to Human dermal fibroblasts. Briefly: Cell phenotype and size comparison in RGD/RGE-containing hydrogels (inverted optic microscope). Particulars: after 24 hours, 3D culture, 1 mM/L RGD or RGE peptide with Fmoc-Phe-Phe-OH. As to the method:
Fmoc-SEQ. ID. NO. 1-OH (Fmoc-SEQ. ID. NO. 1) adhesion motifs were introduced to tackle the issue of un-spreaded cells in Fmoc-Phe-Phe-OH gels therefore to induce spreading and focal adhesion of dermal fibroblasts in these self-assembled peptide hydrogels. Fmoc-Phe-Phe-OH and Fmoc-Phe-Phe-OH+Fmoc-SEQ. ID. NO. 2-OH (Fmoc-SEQ. ID. NO. 2) combination were set as comparisons.
0.0014 grams of Fmoc-SEQ. ID. NO. 1or Fmoc-SEQ. ID. NO. 2(1 mM/L in later hydrogels), were weighed and mixed with 0.0107 grams Fmoc-Phe-Phe-OH respectively into glass vials, and 0.0107 grams Fmoc-Phe-Phe-OH alone was weighed as well. The above peptide and peptide mixtures were sterilized for 30 minutes by an ultraviolet light exposure with bottles of distilled water, filtered NaOH (Sodium Hydroxide, 0.5 M/L), filtered HCl (Hydrochloric Acid, 0.5 M/L), and relevant apparatus (spatulas, pipettes, Vortex). 2 mL of the sterile distilled water was then added into each glass vial of Fmoc-Phe-Phe-OH, Fmoc-Phe-Phe-OH+Fmoc-SEQ. ID. NO. 1, and Fmoc-Phe-Phe-OH+Fmoc-SEQ. ID. NO. 2, and the mixtures were vortexed for a few seconds to create suspensions. […] The basic peptide solutions (pH around 10) were finally neutralized to pH 7 by dropwise addition of HCl and pH values were monitored by a pH meter with a micro-probe. […]

Experiment [3] has as its system bovine chondrocytes. Briefly: Culture of chondrocytes on/in hydrogel scaffold (proliferation and retention of phenotype). The following applies: cell culture of up to 7 days. As to the method:
Bovine chondrocytes were isolated from cartilage of the proximal side of the metacarpalphalangeal joint, washed in PBS and incubated overnight in Dulbeccos Modified Eagles Medium (DMEM) supplemented with 10% foetal calf serum, 100 units ml^−1 penicillin/streptomycin and 0.85 mM ascorbic acid. The cartilage was finely chopped and incubated with pronase type E (700 units ml^−1) (BDH Ltd., Poole, UK) in medium for 2 h followed by collagenase type 1a (300 units ml^−1) (SIGMA-ALDRICH Co. Ltd., Poole, UK) in medium for 2 h. The cell suspension was centrifuged at 1500 rpm for 5 min to pellet the cells. The cells were washed twice in medium and seeded directly onto the peptide scaffolds (and tissue culture plastic control) or encapsulated within the scaffolds during the gelation stage at a cell density of 5×10^5 ml^−1 in medium. The cultures were maintained in an incubator at 37° C. with a humidified atmosphere of 5% CO2 for up to 4 weeks. Chondrocytes were used up to passage 5.
Finally, all three gels prepared (ie. entries 1, 2 and 3) were tested for their ability to support proliferation and retention of phenotype of bovine chondrocytes. […]
The rounded cell shape is the typical phenotype for chondrocytes. […] Two-photon fluorescence microscopy was used to observe samples stained with DAPI, a fluorescent nucleic acid stain that enables visualisation of cell nuclei.

The subject of experiment [4] is human adult dermal fibroblast. Briefly: 3D culture inside peptide gels, cell shape. Particulars: 10 mM/L gel, cells seeded inside the gel. As to the method:
With 10 mM/L Fmoc-Phe-Phe-OH self-assembled hydrogels, human adult dermal fibroblast were also seeded 3 dimensionally (3D culture) inside the peptide gels. […] Despite proliferation, whether ECM components (proteins and saccharides) were synthesized and secreted by these cells is another way to justify cells' reaction to the material. However, viability of the cells is of necessity to maintain a steady ECM secretion or to restore proliferation after possible cell spreading at later time points.

Peptide text beside a SMILES is read from it. * marks the point of attachment. Fmoc = O=C(OCC1c2ccccc2-c2ccccc21)*

Turning to `O=C(N[C@@H](Cc1ccccc1)C(=O)N[C@@H](Cc1ccccc1)C(=O)O)OCC1c2ccccc2-c2ccccc21` [Entry 1, Fmoc-Phe-Phe-OH] (Fmoc-Phe-Phe-OH), in experiment [1], the “cell viability (from gene expression)” value was “viable cells present”. Further, in experiment [1] (10 mM gel), the “expression of GAPDH” value is “expression”, the “expression of SOX-9” value is on record as “lack of expression”, the expression of aggrecan entry is “lack of expression” and the “expression of type I collagen” value is listed as “expression”. The “expression of type II collagen” value in experiment [1] (10 mM gel) is reported as “lack of expression”. The average cell size result in experiment [2] was “around 20 microns”. In addition, the “retention of morphological phenotype and proliferation of chondrocytes” value in experiment [3] was “cell morphological phenotype is retained”. For the same molecule, the “cell shape in 3D culture” value in experiment [4] is listed as “oval to round cell shape remained for a long term”.
